Legend:
Assay type in all cases: in vivo
Details in all cases: treatment dosage 320 g/ha
Italian ryegrass [1] = assay: Test Example 4: weedkilling efficacy by foliar treatment; I: Italian ryegrass
Procedure, shortened: (§1)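 Seeds are spot-sown into sterilized diluvial soil and covered with about 1.5 cm of soil. After 14 days' greenhouse growth at 25 to 30° C, plants are sprayed on stems and leaves with diluted emulsion at the stated g/ha rate, then scored at 3 weeks.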

redroot pigweed [2] = assay: Test Example 3: weedkilling efficacy through soil treatment; L: redroot pigweed
Procedure, shortened: (§2)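 Crop and weed responses were judged three weeks after a uniform surface spray of the water-diluted emulsion at the given g/ha rate. Seeds sat beneath about 1.5 cm of sterilized diluvial soil, and boxes stood in a greenhouse at 25 to 30° C.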

green foxtail [3] = assay: Test Example 3: weedkilling efficacy through soil treatment; E: green foxtail
Procedure, shortened: as §2

beet [4] = assay: Test Example 4: foliar treatment, effect on crop; f: beet
Procedure, shortened: as §1

rapeseed [5] = assay: Test Example 3: soil treatment, effect on crop; g: rapeseed
Procedure, shortened: as §2

black-grass [6] = assay: Test Example 4: weedkilling efficacy by foliar treatment; H: black-grass
Procedure, shortened: as §1

corn [7] = assay: Test Example 3: soil treatment, effect on crop; c: corn
Procedure, shortened: as §2

catchweed [8] = assay: Test Example 4: weedkilling efficacy by foliar treatment; O: catchweed
Procedure, shortened: as §1

directly sown rice [9] = assay: Test Example 3: soil treatment, effect on crop; b: directly sown rice
Procedure, shortened: as §2

barnyard grass [10] = assay: Test Example 4: weedkilling efficacy by foliar treatment; F: barnyard grass
Procedure, shortened: as §1

rapeseed [11] = assay: Test Example 4: foliar treatment, effect on crop; g: rapeseed
Procedure, shortened: as §1

chickweed [12] = assay: Test Example 3: weedkilling efficacy through soil treatment; N: chickweed
Procedure, shortened: as §2

Italian ryegrass [13] = assay: Test Example 3: weedkilling efficacy through soil treatment; I: Italian ryegrass
Procedure, shortened: as §2

directly sown rice [14] = assay: Test Example 4: foliar treatment, effect on crop; b: directly sown rice
Procedure, shortened: as §1

wild oat [15] = assay: Test Example 3: weedkilling efficacy through soil treatment; G: wild oat
Procedure, shortened: as §2

common wind-grass [16] = assay: Test Example 4: weedkilling efficacy by foliar treatment; J: common wind-grass
Procedure, shortened: as §1

soybean [17] = assay: Test Example 3: soil treatment, effect on crop; d: soybean
Procedure, shortened: as §2

catchweed [18] = assay: Test Example 3: weedkilling efficacy through soil treatment; O: catchweed
Procedure, shortened: as §2

Indian mallow [19] = assay: Test Example 4: weedkilling efficacy by foliar treatment; K: Indian mallow
Procedure, shortened: as §1

transplanted rice = assay: Test Example 1: preemergent weed treatment in the submerged state, effect on crop; a: transplanted rice
Procedure, shortened: (§3)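 Submerged pre-emergence treatment, water-surface application of compound emulsion at g/ha dosages; 4 cm flooded alluvial soil, weeds sown and 2.5-leaf rice transplanted same day. Rated after 3 weeks, greenhouse.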

bulrush [20] = assay: Test Example 2: weedkilling efficacy, growth period weed treatment in the submerged state; B: bulrush
Procedure, shortened: (§4)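 Seedlings at 1-2 leaves in 4 cm-deep submerged alluvial soil received emulsion formulations on the water surface, dosed per hectare; effects were judged 3 weeks on.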

crabgrass [21] = assay: Test Example 3: weedkilling efficacy through soil treatment; D: crabgrass
Procedure, shortened: as §2

fig-leafed goosefoot [22] = assay: Test Example 3: weedkilling efficacy through soil treatment; M: fig-leafed goosefoot
Procedure, shortened: as §2

Indian mallow [23] = assay: Test Example 3: weedkilling efficacy through soil treatment; K: Indian mallow
Procedure, shortened: as §2

bulrush [24] = assay: Test Example 1: weedkilling efficacy, preemergent weed treatment in the submerged state; B: bulrush
Procedure, shortened: as §3

black-grass [25] = assay: Test Example 3: weedkilling efficacy through soil treatment; H: black-grass
Procedure, shortened: as §2

common wind-grass [26] = assay: Test Example 3: weedkilling efficacy through soil treatment; J: common wind-grass
Procedure, shortened: as §2

birds-eye speedwell [27] = assay: Test Example 4: weedkilling efficacy by foliar treatment; p: birds-eye speedwell
Procedure, shortened: as §1

wild oat [28] = assay: Test Example 4: weedkilling efficacy by foliar treatment; G: wild oat
Procedure, shortened: as §1

oval-leafed pondweed [29] = assay: Test Example 2: weedkilling efficacy, growth period weed treatment in the submerged state; C: oval-leafed pondweed
Procedure, shortened: as §4

wheat [30] = assay: Test Example 3: soil treatment, effect on crop; e: wheat
Procedure, shortened: as §2

crabgrass [31] = assay: Test Example 4: weedkilling efficacy by foliar treatment; D: crabgrass
Procedure, shortened: as §1

barnyard grass [32] = assay: Test Example 3: weedkilling efficacy through soil treatment; F: barnyard grass
Procedure, shortened: as §2

corn [33] = assay: Test Example 4: foliar treatment, effect on crop; c: corn
Procedure, shortened: as §1

green foxtail [34] = assay: Test Example 4: weedkilling efficacy by foliar treatment; E: green foxtail
Procedure, shortened: as §1

soybean [35] = assay: Test Example 4: foliar treatment, effect on crop; d: soybean
Procedure, shortened: as §1

beet [36] = assay: Test Example 3: soil treatment, effect on crop; f: beet
Procedure, shortened: as §2

birds-eye speedwell [37] = assay: Test Example 3: weedkilling efficacy through soil treatment; p: birds-eye speedwell
Procedure, shortened: as §2

barnyard grass [38] = assay: Test Example 2: weedkilling efficacy, growth period weed treatment in the submerged state; A: barnyard grass
Procedure, shortened: as §4

wheat [39] = assay: Test Example 4: foliar treatment, effect on crop; e: wheat
Procedure, shortened: as §1

redroot pigweed [40] = assay: Test Example 4: weedkilling efficacy by foliar treatment; L: redroot pigweed
Procedure, shortened: as §1

fig-leafed goosefoot [41] = assay: Test Example 4: weedkilling efficacy by foliar treatment; M: fig-leafed goosefoot
Procedure, shortened: as §1

chickweed [42] = assay: Test Example 4: weedkilling efficacy by foliar treatment; N: chickweed
Procedure, shortened: as §1

oval-leafed pondweed [43] = assay: Test Example 1: weedkilling efficacy, preemergent weed treatment in the submerged state; C: oval-leafed pondweed
Procedure, shortened: as §3

barnyard grass [44] = assay: Test Example 1: weedkilling efficacy, preemergent weed treatment in the submerged state; A: barnyard grass
Procedure, shortened: as §3

## CC1=C(c2ccccc2)C(=O)N(C(C)(C)C(=O)Nc2cc(C)cc(F)n2)CO1 [B-2-38]
Italian ryegrass [1]
  I (Italian ryegrass) weedkilling efficacy grade: 5 (weed kill ratio 90% or more, (practically complete withering))
Redroot pigweed [2]
  L (redroot pigweed) weedkilling efficacy grade: 3 (weed kill ratio 40% or more, less than 70%)
Green foxtail [3]
  E (green foxtail) weedkilling efficacy grade: 5 (weed kill ratio 90% or more, (practically complete withering))
Beet [4]
  f (beet) effect on crop grade: 4 (weed kill ratio 70% or more, less than 90%)
Rapeseed [5]
  g (rapeseed) effect on crop grade: 4 (weed kill ratio 70% or more, less than 90%)
black-grass [6]
  H (black-grass) weedkilling efficacy grade: 5 (weed kill ratio 90% or more, (practically complete withering))
Corn [7]
  c (corn) effect on crop grade: 1 (weed kill ratio 5% or more, less than 20%)
Catchweed [8]
  O (catchweed) weedkilling efficacy grade: 4 (weed kill ratio 70% or more, less than 90%)
Directly sown rice [9]
  b (directly sown rice) effect on crop grade: 5 (weed kill ratio 90% or more, (practically complete withering))
Barnyard grass [10]
  F (barnyard grass) weedkilling efficacy grade: 5 (weed kill ratio 90% or more, (practically complete withering))
Rapeseed [11]
  g (rapeseed) effect on crop grade: 4 (weed kill ratio 70% or more, less than 90%)
Chickweed [12]
  N (chickweed) weedkilling efficacy grade: 4 (weed kill ratio 70% or more, less than 90%)
Italian ryegrass [13]
  I (Italian ryegrass) weedkilling efficacy grade: 5 (weed kill ratio 90% or more, (practically complete withering))
Directly sown rice [14]
  b (directly sown rice) effect on crop grade: 5 (weed kill ratio 90% or more, (practically complete withering))
Wild oat [15]
  G (wild oat) weedkilling efficacy grade: 5 (weed kill ratio 90% or more, (practically complete withering))
Common wind-grass [16]
  J (common wind-grass) weedkilling efficacy grade: 5 (weed kill ratio 90% or more, (practically complete withering))
Soybean [17]
  d (soybean) effect on crop grade: 4 (weed kill ratio 70% or more, less than 90%)
Catchweed [18]
  O (catchweed) weedkilling efficacy grade: 5 (weed kill ratio 90% or more, (practically complete withering))
Indian mallow [19]
  K (Indian mallow) weedkilling efficacy grade: 4 (weed kill ratio 70% or more, less than 90%)
Transplanted rice
  a (transplanted rice) effect on crop grade: 3 (weed kill ratio 40% or more, less than 70%)
Bulrush [20]
  B (bulrush) weedkilling efficacy grade: 5 (weed kill ratio 90% or more, (practically complete withering))
Crabgrass [21]
  D (crabgrass) weedkilling efficacy grade: 5 (weed kill ratio 90% or more, (practically complete withering))
fig-leafed goosefoot [22]
  M (fig-leafed goosefoot) weedkilling efficacy grade: 4 (weed kill ratio 70% or more, less than 90%)
Indian mallow [23]
  K (Indian mallow) weedkilling efficacy grade: 1 (weed kill ratio 5% or more, less than 20%)
Bulrush [24]
  B (bulrush) weedkilling efficacy grade: 5 (weed kill ratio 90% or more, (practically complete withering))
black-grass [25]
  H (black-grass) weedkilling efficacy grade: 5 (weed kill ratio 90% or more, (practically complete withering))
Common wind-grass [26]
  J (common wind-grass) weedkilling efficacy grade: 5 (weed kill ratio 90% or more, (practically complete withering))
birds-eye speedwell [27]
  P (birds-eye speedwell) weedkilling efficacy grade: 4 (weed kill ratio 70% or more, less than 90%)
Wild oat [28]
  G (wild oat) weedkilling efficacy grade: 5 (weed kill ratio 90% or more, (practically complete withering))
oval-leafed pondweed [29]
  C (oval-leafed pondweed) weedkilling efficacy grade: 5 (weed kill ratio 90% or more, (practically complete withering))
Wheat [30]
  e (wheat) effect on crop grade: 0 (weed kill ratio 5% or less (practically no effect))
Crabgrass [31]
  D (crabgrass) weedkilling efficacy grade: 5 (weed kill ratio 90% or more, (practically complete withering))
Barnyard grass [32]
  F (barnyard grass) weedkilling efficacy grade: 5 (weed kill ratio 90% or more, (practically complete withering))
Corn [33]
  c (corn) effect on crop grade: 5 (weed kill ratio 90% or more, (practically complete withering))
Green foxtail [34]
  E (green foxtail) weedkilling efficacy grade: 5 (weed kill ratio 90% or more, (practically complete withering))
Soybean [35]
  d (soybean) effect on crop grade: 4 (weed kill ratio 70% or more, less than 90%)
Beet [36]
  f (beet) effect on crop grade: 4 (weed kill ratio 70% or more, less than 90%)
birds-eye speedwell [37]
  P (birds-eye speedwell) weedkilling efficacy grade: 5 (weed kill ratio 90% or more, (practically complete withering))
Barnyard grass [38]
  A (barnyard grass) weedkilling efficacy grade: 5 (weed kill ratio 90% or more, (practically complete withering))
Wheat [39]
  e (wheat) effect on crop grade: 1 (weed kill ratio 5% or more, less than 20%)
Redroot pigweed [40]
  L (redroot pigweed) weedkilling efficacy grade: 4 (weed kill ratio 70% or more, less than 90%)
fig-leafed goosefoot [41]
  M (fig-leafed goosefoot) weedkilling efficacy grade: 4 (weed kill ratio 70% or more, less than 90%)
Chickweed [42]
  N (chickweed) weedkilling efficacy grade: 4 (weed kill ratio 70% or more, less than 90%)
oval-leafed pondweed [43]
  C (oval-leafed pondweed) weedkilling efficacy grade: 5 (weed kill ratio 90% or more, (practically complete withering))
Barnyard grass [44]
  A (barnyard grass) weedkilling efficacy grade: 5 (weed kill ratio 90% or more, (practically complete withering))

From patent US9738634B2, “Heterocyclic amide compound and herbicide” (SYNGENTA PARTICIPATIONS AG, priority 2013, dated 2017)
